{
  "source": "patent US7132542B2",
  "about": "“Compounds for the treatment of male erectile dysfunction” (Bristol-Myers Squibb Company, priority 2003, dated 2006)",
  "key": {"[1]": {"tested_on": "rat small intestine tissue", "experiment": "Relaxation of rat small intestine (ileum) segments", "design": "concentration or dose not given beside the values", "conditions": "integral of nifedipine-sensitive force, 30 min post-compound addition", "excerpt": "The ability of the compounds of the invention to relax rat small intestine tissue as a model for the treatment of irritable bowel syndrome is described as follows. Male rats (Harlan, Sprague Dawley, 250–350 g) were sacrificed by decapitation. A portion of small intestine (ileum) was removed and the attached connective tissues and intestinal contents removed. The ileum was cut into segments of ≦1 cm in length. The segments were mounted longitudinally between fixed hooks in organ baths containing warm (37° C.) physiological salt solution (composition in mM: NaCl 118.4, KCl 4.7, KH2PO4 1.2, MgSO4 1.2, CaCl2 1.8, Glucose 10.1, NaHCO3 25; gassed with 95% O2/5% CO2, pH 7.4). A stable tension of ˜1.5 g was maintained in the tissue segments during the equilibration period of 45 minutes. Changes in muscle tension were measured with isometric force transducers (Grass, FT-03C) and recorded using AcqKnowledge data acquisition system (AcqKnowledge for MP100WS, Biopac Systems Inc., Goleta, Calif.). Compound or vehicle was added in the baths for 30 minutes. “Zero” active force was established at the end of the experiment using nifedipine (20 μM). The effects of compounds or vehicle on force was determined by measuring the integral of nifedipine-sensitive force (including resting tone and spontaneous contractions) pre- and 30 min post-compound (or vehicle) addition. Results are expressed as the percentage inhibition of force. DMSO vehicle inhibited force (integral) by −0.6±3.0% (n=25)."}, "[2]": {"tested_on": "cloned mammalian (mSlo or hSlo) BK channel", "experiment": "Assay for BK channel openers: two-electrode voltage clamp of BK-mediated outward current in Xenopus oocytes", "assay_type": "cell-based", "conditions": "at 20 μM; percent increase over BK current in controls, voltage step to +140 mV; IBTX-sensitive current", "description": "The ability of the compounds of the invention to open BK channels and increase whole-cell outward (K^+) BK-mediated currents was assessed under voltage-clamp conditions by determining their ability to increase cloned mammalian (mSlo or hSlo) BK-mediated outward current heterologously expressed in Xenopus oocytes [Butler, A., et al., Science 1993, 261, 221–224; Dworetzky, S. I., et al., Mol. Brain Res. 1994, 27, 189–193; Gribkoff, V. K., et al., Mol. Pharmacol. 1996, 50, 206–217]. The two BK constructs employed represent nearly structurally identical homologous proteins, and have proven to be pharmacologically indistinguishable in our tests. To isolate BK current from native (background, non-BK) current, the specific and potent BK channel-blocking toxin iberiotoxin (IBTX) [Galvez, A., et al., J. Biol. Chem. 1990, 265, 11083–11090] was employed at a supramaximal concentration, e.g., 50–100 nanomolar (“nM”). The relative contribution of BK channel-mediated current to total outward current was determined by subtraction of the current remaining in the presence of IBTX (non-BK current) from the current profiles obtained in all other experimental conditions (control, drug, and wash) [Gribkoff, V. K. et al., Mol. Pharmacol. 1996, 50, 206–217]. […] All compounds were tested in 5–10 oocytes and are reported at the indicated concentration of 20 micromolar (“μM”) (or as otherwise indicated); the effect of the selected compounds of the invention on BK current was expressed as the percent of control IBTX-sensitive current at a single transmembrane voltage (+140 mV) and is listed in Table 1. Recordings were accomplished using standard two-electrode voltage clamp techniques [Stuhmer, W., et al., Methods in Enzymology, 1992, 207, 319–339]; voltage-clamp protocols consisted of 500–750 milliseconds (“ms”) duration step depolarizations, from a holding potential of −60 mV, to a final voltage up to +140 mV in 20 mV steps. The experimental media (modified Barth's solution) consisted of millimolar (“mM”): NaCl (88), NaHCO3 (2.4), KCl (1.0), HEPES (10), MgSO4 (0.82), Ca(NO3)2 (0.33), CaCl2 (0.41); pH 7.5."}, "[3]": {"tested_on": "rabbit corpus cavernosum tissue", "experiment": "Relaxation of rabbit corpus cavernosum strips precontracted with phenylephrine", "conditions": "Oryctolagus cuniculus; inhibition of phenylephrine (3 μM)-induced force as compared to vehicle control; read-out: % Inhibition of force (RCC strips)", "description": "The ability of the compounds of the invention to relax rabbit corpus cavernosum tissue as a model for the treatment of erectile dysfunction is described as follows. New Zealand white rabbits (3.4–3.7 kg) were euthanized by sodium pentobarbital (100 mg/kg) overdose. The penis from each animal was rapidly removed and immersed in a cold oxygenated modified Krebs Henseleit bicarbonate buffer. The penis' outer tunica was removed and the corpus cavernosum smooth muscle obtained and cut into strips approximately 3–5 mm long. The strips were suspended in tissue baths containing physiological salt solution (see above), and allowed to equilibrate for at least one hour under resting tension of 1.0 gram. Isometric force was measured as described above. Tissue strips were stimulated with the α-agonist phenylephrine (3 μM) and allowed to reach a steady level of force prior to the addition of test compounds. The results are expressed as the percentage inhibition of phenylephrine-induced force as compared to vehicle control."}},
  "data": [
    {"molecule": "O=C(CCCN1CCCC1)Nc1ccc(Sc2c(-c3cc(Cl)ccc3O)c3cc(C(F)(F)F)ccc3[nH]c2=O)cc1", "note": "[Example 5, N-{4-[4-(5-Chloro-2-hydroxy-phenyl)-2-oxo-6-trifluoromethyl-1,2-dihydro-quinolin-3-ylsulfanyl]-phenyl}-4-pyrrolidin-1-yl-butyramide]", "values": [
      {"measurement": "% Inhibition of force (RSI strips)", "setting": "[1]", "value": 65, "unit": "%"},
      {"measurement": "% MaxiK opening", "setting": "[2]", "value": 280, "unit": "%"},
      {"measurement": "inhibition", "setting": "[3]", "value": 36, "unit": "%"}
    ]}
  ]
}
